Test results reported in article PMC7481839, “Switchable foldamer ion channels with antibacterial activity” (Chemical Science, 2020).
Where a SMILES comes first, the peptide text is derived from it.

Assay: U-tube lucigenin (chloride) transport experiment
Settings: 1 mM in chloroform, 20 mM MOPS, 100 mM NaCl, pH 7.4, 25 °C, up to 24 h, UV at 455 nm
Description: To assess if these compounds can act as cation carriers, U-tube experiments for sodium picrate transport were performed on 1, Cu(II)[1]Cl2 and Cu(II)[2]Cl2. […] Similarly, a U-tube experiment for chloride transport was performed using lucigenin.[4],[40]
5.7 Preparation of large unilamellar vesicles for CF release assays
A 50 mM 5(6)-carboxyfluorescein (CF) solution in MOPS buffer (20 mM MOPS, 100 mM NaCl, pH 7.4) was prepared by dissolving 5/6-CF in MOPS buffer, adding a sodium hydroxide (1M) solution dropwise until pH 11 was reached. The resulting solution was the slowly acidified to pH 7.4.
EYPC-cholesterol (4:1) 800 nm vesicles were prepared as described above, using the above mentioned 5(6)-carboxyfluorescein (CF) (50 mM) solution. […]
The U-tube was incubated in a water bath at 25 °C and the chloroform phase was stirred at 300 rpm during the entire experiment, ensuring efficient diffusion of any potential carrier-ion complex to the receiving phase. Aliquots (1 mL) were taken from the receiving phase and analysed for the presence of picrate by UV spectroscopy (at 356 nm). […]
Figure S11: U-tube metal picrate transport data for foldamer 1 (brown), Cu[2]Cl2 (black), Cu[1]Cl2 (green), and the control transporter, dibenzo-18-crown-6 (red). Absorbance at 356 nm. […]
Aliquots (1 mL) were taken from the receiving phase and analysed for the presence of lucigenin by UV spectroscopy (at 455 nm). […]

SMILES: CC(C)(NC(=O)C(C)(C)NC(=O)C(C)(C)NC(=O)C(C)(C)NC(=O)C(C)(C)n1cc(CN(Cc2ccccn2)Cc2ccccn2)nn1)C(=O)NC(C)(C)C(=O)NC(C)(C)C(=O)NC(C)(C)C(=O)OCC[Si](C)(C)C [foldamer 2] (HELM PEPTIDE1{[CC(C)(C(=O)[*:2])n1cc(CN(Cc2ccccn2)Cc2ccccn2)nn1].[Aib].[Aib].[Aib].[Aib].[Aib].[Aib].[Aib].[C[Si](C)(C)CCO[*:1]]}$$$$V2.0)
- chloride (lucigenin) transport through the organic phase: no chloride was carried through the organic phase
